Data published in PubChem BioAssay (NCI).
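Grown in 96-well plates, cells were treated for 48 hours with each compound at five concentrations. Insufficient inhibition: endpoint recorded as highest concentration tested. TGI marks complete inhibition of growth.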

Experiments:
Experiment in all cases: NCI anticancer screen, dose series, 48 h
[1] = system: NCI-H460 lung
[2] = system: CAKI-1 renal
[3] = system: COLO 205 colon
[4] = system: OVCAR-3 ovarian
[5] = system: LOX IMVI melanoma
[6] = system: A549 NSCLC
[7] = system: HT29 colon
[8] = system: PC-3 prostate
[9] = system: HCT-116 colon
[10] = system: SK-MEL-28 melanoma

SMILES: CC1=CC(O)CC(C)(C)C1/C=C/C(C)=C/C=C/C(C)=C/C=C/C=C(C)/C=C/C=C(C)/C=C/C1=C(C)CC(O)CC1(C)C (stereo not given)
- TGI [1]: > 100 µM
- TGI [2]: 51.4 µM
- TGI [3]: 38 µM
- TGI [4]: 32.8 µM
- TGI [5]: > 100 µM
- TGI [6]: > 100 µM
- TGI [7]: 30.3 µM
- TGI [8]: 62.6 µM
- TGI [9]: 30 µM
- TGI [10]: 31.4 µM

SMILES: CC(C)(C)[Si](C)(C)OC1CCOC1(O)c1ccccn1 (stereo not given)
- TGI [1]: > 100 µM
- TGI [2]: > 100 µM
- TGI [3]: > 100 µM
- TGI [4]: > 100 µM
- TGI [5]: > 100 µM
- TGI [6]: > 100 µM
- TGI [7]: > 100 µM
- TGI [8]: > 100 µM
- TGI [9]: > 100 µM
- TGI [10]: > 100 µM

SMILES: COc1ccccc1Cn1c2c(c3cc(O)ccc31)C(=O)c1ccccc1C2=O
- TGI [1]: > 100 µM
- TGI [2]: 69.7 µM
- TGI [3]: > 100 µM
- TGI [4]: > 100 µM
- TGI [5]: > 100 µM
- TGI [6]: > 100 µM
- TGI [7]: > 100 µM
- TGI [8]: 53.5 µM
- TGI [9]: > 100 µM
- TGI [10]: > 100 µM

SMILES: O=C1c2c(Br)sc(Br)c2[C@H]2OC(=S)N[C@@H]12
- TGI [1]: 34.2 µM
- TGI [2]: 7.81 µM
- TGI [3]: 5.58 µM
- TGI [4]: 7.26 µM
- TGI [5]: 10.9 µM
- TGI [6]: 37.5 µM
- TGI [7]: 4.05 µM
- TGI [8]: 14 µM
- TGI [9]: 7.6 µM
- TGI [10]: 7.94 µM

SMILES: CCOP(=O)(CC1OC(CO)C(O)C1O)OCC (stereo not given)
- TGI [1]: > 100 µM
- TGI [2]: > 100 µM
- TGI [3]: > 100 µM
- TGI [4]: > 100 µM
- TGI [5]: > 100 µM
- TGI [6]: > 100 µM
- TGI [7]: > 61.8 µM
- TGI [8]: > 100 µM
- TGI [9]: > 100 µM
- TGI [10]: > 100 µM

SMILES: C/C(=C\CO)CC[C@@H]1[C@@]2(C)CCCC(C)(C)[C@@H]2CC[C@@]1(C)O
- TGI [1]: 31.3 µM
- TGI [2]: 72.1 µM
- TGI [3]: 32.7 µM
- TGI [4]: 27.6 µM
- TGI [5]: 30.2 µM
- TGI [6]: 92.7 µM
- TGI [7]: 51.2 µM
- TGI [8]: 30 µM
- TGI [9]: 43.5 µM
- TGI [10]: 43.2 µM

SMILES: CO[C@H](C)[C@](O)(C(=O)OCC1=CCN2CC[C@@H](O)[C@H]12)C(C)C
- TGI [1]: > 100 µM
- TGI [2]: > 100 µM
- TGI [3]: > 100 µM
- TGI [4]: > 100 µM
- TGI [5]: > 100 µM
- TGI [6]: > 100 µM
- TGI [7]: > 100 µM
- TGI [8]: > 100 µM
- TGI [9]: > 100 µM
- TGI [10]: > 100 µM

SMILES: Cc1ccc2nc(Nc3ccccc3C)c(Nc3ccccc3C)nc2c1
- TGI [1]: 45 µM
- TGI [2]: > 95.7 µM
- TGI [3]: 30.6 µM
- TGI [4]: 52.3 µM
- TGI [5]: 39.5 µM
- TGI [6]: 49.1 µM
- TGI [7]: > 81.1 µM
- TGI [8]: > 100 µM
- TGI [9]: 40.2 µM
- TGI [10]: > 100 µM

SMILES: COc1ccc(C(=C2C(=O)OC(=O)C2=C(C)C)c2ccc(OC)cc2)cc1
- TGI [1]: > 100 µM
- TGI [2]: > 100 µM
- TGI [3]: > 100 µM
- TGI [4]: 47.5 µM
- TGI [5]: > 100 µM
- TGI [6]: > 100 µM
- TGI [7]: > 100 µM
- TGI [8]: > 100 µM
- TGI [9]: > 100 µM
- TGI [10]: > 100 µM

SMILES: CN(C)CN1C(=O)/C(=N\n2c(-c3ccncc3)n[nH]c2=S)c2ccccc21
- TGI [1]: > 100 µM
- TGI [2]: > 100 µM
- TGI [3]: > 100 µM
- TGI [4]: > 100 µM
- TGI [5]: 62.2 µM
- TGI [6]: > 100 µM
- TGI [7]: 61.5 µM
- TGI [8]: > 100 µM
- TGI [9]: > 100 µM
- TGI [10]: > 100 µM

SMILES: CCCCCc1cc(CCCC)sc1-c1ccco1
- TGI [1]: > 100 µM
- TGI [2]: > 100 µM
- TGI [3]: > 100 µM
- TGI [4]: > 100 µM
- TGI [5]: > 100 µM
- TGI [6]: > 100 µM
- TGI [7]: > 100 µM
- TGI [8]: > 100 µM
- TGI [9]: > 73 µM
- TGI [10]: > 100 µM

SMILES: Cn1c2ccccc2c2c3c(=O)[nH][nH]c(=O)c3c3c4ccccc4n(C)c3c21
- TGI [1]: > 100 µM
- TGI [2]: > 100 µM
- TGI [3]: > 100 µM
- TGI [4]: > 100 µM
- TGI [5]: > 100 µM
- TGI [6]: > 100 µM
- TGI [7]: > 100 µM
- TGI [8]: > 100 µM
- TGI [9]: > 100 µM
- TGI [10]: > 100 µM

SMILES: O=c1n(CCCN2CCOCC2)nc2n1-c1ccc3ccccc3c1SC2
- TGI [1]: 81.1 µM
- TGI [2]: > 100 µM
- TGI [3]: 7.49 µM
- TGI [4]: > 100 µM
- TGI [5]: 53 µM
- TGI [6]: > 100 µM
- TGI [7]: 41.2 µM
- TGI [8]: > 100 µM
- TGI [9]: > 100 µM
- TGI [10]: > 100 µM

SMILES: COc1cc2c3cc1Oc1cc(ccc1O)C[C@@H]1c4c(cc(OC)c(O)c4Oc4ccc(cc4)C[C@@H]3[N+](C)(C)CC2)CC[N+]1(C)C
- TGI [1]: > 100 µM
- TGI [2]: > 100 µM
- TGI [3]: > 100 µM
- TGI [4]: > 100 µM
- TGI [5]: 42.5 µM
- TGI [6]: > 100 µM
- TGI [7]: > 100 µM
- TGI [8]: > 100 µM
- TGI [9]: > 100 µM
- TGI [10]: > 100 µM
